What was measured:
[1] = system: T1 AAD-12 (v1) canola; test: 2,4-D DMA tolerance in T1 canola; type: in vivo, Brassica napus
Procedure: For T1 AAD-12 (v1), 5-6 mg of seed were stratified, sown, and a fine layer of Sunshine Mix #5 media was added as a top layer of soil. Emerging plants were selected with 560 g ae/ha 2,4-D at 7 and 13 days after planting.
(§1) Surviving plants were transplanted into 3-inch pots containing Metro Mix media. Surviving plants from T1 progenies, that were selected with 560 g ae/ha 2,4-D, were also transplanted into 3-inch pots filled with Metro Mix soil. At 2-4 leaf stage plants were sprayed with either 280, 560, 1120, or 2240 g ae/ha 2,4-D DMA. Plants were graded at 3 and 14 DAT and compared to untransformed control plants. A sampling of T1 event injury data 14DAT may be seen in Table 30.

[2] = system: untransformed control canola plants; test: 2,4-D DMA tolerance, untransformed canola control; type: in vivo, Brassica napus
Text: as §1

[3] = system: 2P782 (Roundup Ready Control) corn; test: Herbicide tolerance of 2P782 Roundup Ready control corn in the F1 stack test; type: in vivo, Zea mays; conditions: 1120 g ae/ha 2,4-D DMA
Text: AAD-12 (v1) (pDAB4101) and elite Roundup Ready inbred (BE1146RR) were reciprocally crossed and F1 seed was collected. The seed from two F1 lines were planted and treated with 70 g ae/ha imazethapyr at the V2 stage to eliminate nulls. To the surviving plants, reps were separated and either treated with 1120 g ae/ha 2,4-D DMA+70 g ae/ha imazethapyr (to confirm presence of AHAS gene) or 1120 g ae/ha 2,4-D DMA+1680 g ae/ha glyphosate (to confirm the presence of the Round Up Ready gene) in a track sprayer calibrated to 187 L/ha. Plants were graded 3 and 16 DAT.

[4] = system: KY160 control tobacco; test: Elevated 2,4-D DMA rates in greenhouse tobacco, sensitive control; type: in vivo, Nicotiana tabacum
Text: T1 AAD-12 (v1) plants from an event segregating 3R:1S when selected with 560 g ai/ha Liberty using the same protocol as previously described. T1 AAD-1 (v3) seed was also planted for transformed tobacco controls (see PCT/US2005/014737). Untransformed KY160 was served as the sensitive control. Plants were sprayed using a track sprayer set to 187 L/ha at 140, 560, 2240, 8960, and 35840 g ae/ha 2,4-D DMA and rated 3 and 14 DAT.

[5] = system: AAD-12 (v1) T0 Maverick soybean plants; test: 2,4-D leaf paint (leaf flip assay) on T0 soybean; type: in vivo, Glycine max; set-up: key to Leaf flip assay (18 HAT) Node N-1 / Leaf flip assay (18 HAT) Node N-2: 1 = Flip; 0 = No Flip; conditions: for Leaf flip assay (18 HAT) Node N-1 / Leaf flip assay (18 HAT) Node N-2: 2,4-D leaf paint
Text: Plants that are transferred to the greenhouse can be assayed for the presence of an active PAT gene further with a non-destructive manner by painting a section of leaf of the T0 primary transformant, or progeny thereof, with a glufosinate solution [0.05-2% v/v Liberty Herbicide, preferably 0.25-1.0% (v/v),=500-2000 ppm glufosinate, Bayer Crop Science]. Depending on the concentration used, assessment for glufosinate injury can be made 1-7 days after treatment. Plants can also be tested for 2,4-D tolerance in a non-destructive manner by selective application of a 2,4-D solution in water (0.25-1% v/v commercial 2,4-D dimethylamine salt formulation, preferably 0.5% v/v=2280 ppm 2,4-D ae) to the terminal leaflet of the newly expanding trifoliolate one or two, preferably two, nodes below the youngest emerging trifolioate. This assay allows assessment of 2,4-D sensitive plants 6 hours to several days after application by assessment of leaf flipping or rotation >90 degrees from the plane of the adjacent leaflets. Plants tolerant to 2,4-D will not respond to 2,4-D. To plants will be allowed to self fertilize in the greenhouse to give rise to T1 seed. T1 plants (and to the extent enough T0 plant clones are produced) will be sprayed with a range of herbicide doses to determine the level of herbicide protection afforded by AAD-12 (v1) and PAT genes in transgenic soybean. Rates of 2,4-D used on T0 plants will typically comprise one or two selective rates in the range of 100-1120 g ae/ha using a track sprayer as previously described. T1 plants will be treated with a wider herbicide dose ranging from 50-3200 g ae/ha 2,4-D. Likewise, T0 and T1 plants can be screened for glufosinate resistance by postemergence treatment with 200-800 and 50-3200 g ae/ha glufosinate, respectively. Glyphosate resistance (in plants transformed with constructs that contain EPSPS) or another glyphosate tolerance gene can be assessed in the T1 generation by postemergence applications of glyphosate with a dose range from 280-2240 g ae/ha glyphosate. Analysis of protein expression will occur as described in below. Individual T0 plants were assessed for the presence of the coding region of the gene of interest (AAD-12 (v1) or PAT v6) and copy number. Determination of the inheritance of AAD-12 (v1) will be made using T1 and T2 progeny segregation with respect to herbicide tolerance as described in previous examples.
A subset of the initial transformants were assessed in the T0 generation according to the methods above. […] PAT-only transformed plants responded the same at wildtype plants to leaf paint applications of 2,4-D

CNC.O=C(O)COc1ccc(Cl)cc1Cl [2,4-D DMA]
Average % injury 14 DAT ([1]; T1 pDAB3759(18)009.001, 280 g ae/ha): 0% | Average % injury 14 DAT ([1]; T1 pDAB3759(18)009.001, 560 g ae/ha): 0% | Average % injury 14 DAT ([1]; T1 pDAB3759(18)009.001, 1120 g ae/ha): 0% | Average % injury 14 DAT ([1]; T1 pDAB3759(18)009.001, 2240 g ae/ha): 5% | Average % injury 14 DAT ([1]; T1 pDAB3759(18)022.001, 280 g ae/ha): 0% | Average % injury 14 DAT ([1]; T1 pDAB3759(18)022.001, 560 g ae/ha): 0% | Average % injury 14 DAT ([1]; T1 pDAB3759(18)022.001, 1120 g ae/ha): 13% | Average % injury 14 DAT ([1]; T1 pDAB3759(18)022.001, 2240 g ae/ha): 83% | Average % injury 14 DAT ([1]; T1 pDAB3759(18)023.001, 280 g ae/ha): 0% | Average % injury 14 DAT ([1]; T1 pDAB3759(18)023.001, 560 g ae/ha): 0% | Average % injury 14 DAT ([1]; T1 pDAB3759(18)023.001, 1120 g ae/ha): 3% | Average % injury 14 DAT ([1]; T1 pDAB3759(18)023.001, 2240 g ae/ha): 6% | Average % injury 14 DAT ([1]; T1 pDAB3759(18)030.001, 280 g ae/ha): 0% | Average % injury 14 DAT ([1]; T1 pDAB3759(18)030.001, 560 g ae/ha): 0% | Average % injury 14 DAT ([1]; T1 pDAB3759(18)030.001, 1120 g ae/ha): 5% | Average % injury 14 DAT ([1]; T1 pDAB3759(18)030.001, 2240 g ae/ha): 31% | Average % injury 14 DAT ([1]; T1 pDAB3759(33)013.001, 280 g ae/ha): 0% | Average % injury 14 DAT ([1]; T1 pDAB3759(33)013.001, 560 g ae/ha): 0% | Average % injury 14 DAT ([1]; T1 pDAB3759(33)013.001, 1120 g ae/ha): 0% | Average % injury 14 DAT ([1]; T1 pDAB3759(33)013.001, 2240 g ae/ha): 1% | Average % injury 14 DAT ([2]; 280 g ae/ha): 85% | Average % injury 14 DAT ([2]; 560 g ae/ha): 85% | Average % injury 14 DAT ([2]; 1120 g ae/ha): 90% | Average % injury 14 DAT ([2]; 2240 g ae/ha): 95% | Average % Injury 16DAT [3]: 19%

O=C(O)COc1ccc(Cl)cc1Cl [2,4-D, 2,4-dichlorophenoxyacetic acid]
Average % injury 14 DAT ([4]; 2240 g ae/ha 2,4-D): 95% | Average % injury 14 DAT ([4]; 8960 g ae/ha 2,4-D): 99% | Average % injury 14 DAT ([4]; 35840 g ae/ha 2,4-D): 100% | Leaf flip assay (18 HAT) Node N-1 ([5]; event D-1-14 (pDAB4464, AAD-12, CsVMV)): 0 | Leaf flip assay (18 HAT) Node N-2 ([5]; event D-2-9 (pDAB4464, AAD-12, CsVMV)): 0 | Leaf flip assay (18 HAT) Node N-2 ([5]; event D-2-14 (pDAB4464, AAD-12, CsVMV)): 0 | Leaf flip assay (18 HAT) Node N-2 ([5]; event D-3-5 (pDAB4468, AAD-12, AtUbi10)): 0 | Leaf flip assay (18 HAT) Node N-1 ([5]; event D-3-6 (pDAB4468, AAD-12, AtUbi10)): 0 | Leaf flip assay (18 HAT) Node N-2 ([5]; event D-3-7 (pDAB4468, AAD-12, AtUbi10)): 0 | Leaf flip assay (18 HAT) Node N-2 ([5]; event D-3-9 (pDAB4468, AAD-12, AtUbi10)): 0 | Leaf flip assay (18 HAT) Node N-2 ([5]; event D-4-11B (pDAB4468, AAD-12, AtUbi10)): 0 | Leaf flip assay (18 HAT) Node N-2 ([5]; event D-4-16 (pDAB4468, AAD-12, AtUbi10)): 0 | Leaf flip assay (18 HAT) Node N-2 ([5]; event D-4-17 (pDAB4468, AAD-12, AtUbi10)): 0 | Leaf flip assay (18 HAT) Node N-1 ([5]; event D-5-2 (pDAB4472, AAD-12, AtUbi3)): 0 | Leaf flip assay (18 HAT) Node N-2 ([5]; event D-9-1 (pDAB4480, AAD-12, AtAct2)): 0 | response to 2,4-D leaf painting ([5]; 2,4-D solution applied to terminal leaflet): did not respond

Source: patent US11371055B2, “Herbicide resistance genes” (CORTEVA AGRISCIENCE LLC, priority 2005, dated 2022)
